These results are taken from patent US11149028B2, “Methods for treating melanoma using small molecules” (NOVA SOUTHEASTERN UNIVERSITY, priority 2016, dated 2021).

Entries after “also recorded” stand apart in the source; their conditions may differ. Where two headings read alike, the source gives them in different places.

In this experiment the test system is M14 cells. The procedure: ApoTox-Glo™ Triplex Assay which allows one to simultaneously assess the effect of small molecules on cell viability, toxicity, caspase activity, and cell cycle all in the same well (Niles, A. L.; Moravec, R. A.; Riss, T. L. In vitro viability and cytotoxicity testing and same-well multi-parametric combinations for high throughput screening. Curr Chem Genomics 2009, 3, 33-41) was utilized. First, a mixture of 2 fluorogenic substrates was added to cells. GF-AFC substrate is cell-permeant and non-lytic to cells, allowing the measurement of active protease inside live cells. The second substrate (bis-AAF-R110 Substrate) is not cell-permeable and is only cleaved when proteases are released from cells due to the loss of membrane integrity typical of cell death. This step generates an inversely correlated measurement of cell viability and toxicity.
The second addition is luminogenic DEVD-peptide substrate for caspase-3/7 and Ultra-Glo™ Recombinant Thermostable Luciferase. Caspase-3/7 cleavage of the substrate generates a luminescent signal which correlates with caspase-3/7 activation as a key indicator of apoptosis. As markers for cytotoxicity and apoptosis are transient, the assay was conducted in time course format with time points at 4, 24, 48, and 72 h.
M14 #5 cells were plated in 384-well format at a density of 1,250 cells in 5 μL of serum-free DMEM media and incubated at 37° C. in 5% CO2 for 4 h. Control and test compounds were serially diluted in a ratio of 1:3 and added to wells in 4 μL. […] Plates were incubated at 37° C. in 5% CO2 for 4, 24, 48, and 72 h. At the end of each time point Viability/Cytotoxicity™ Reagent was prepared containing 400 μM glycylphenylalanyl-aminofluorocoumarin (GF-AFC) substrate (cleavable by live cell proteases) and 400 μM bis-alanylalanyl-phenylalanyl-rhodamine 110 (bis-AAF-R110) substrate (cleavable by dead cell proteases). 4 μL of the Viability/Cytotoxicity™ Reagent was used per well. The plate was incubated for 30 min at 37° C. Fluorescence was read at λEx=400 nm and λEm=505 nm for GF-AFC and λEx=485 nm and λEm=520 nm for bis-AAF-R110 on the BioTek Synergy™ 4 Multi-Mode Microplate Reader. Caspase-Glo® 3/7 Reagent was then added in 12 μL volume. The plate was incubated for 30 min at room temperature and luminescence was measured on the BioTek Synergy™ 4 Multi-Mode Microplate Reader.

The mark [1] stands for this setting: time course 4-72 h, time stated at the place.

With `O=C1NC[C@H](Cc2ccccc2)N(C[C@@H]2CCCN2C[C@@H](CC2CCCCC2)N2C[C@H](Cc3ccc(O)cc3)N(CCc3ccccc3)C(=O)C2=O)C1=O` [Compound 2155-14, (S)-1((R)-1((S)-2-(((S)-6-benzyl-2,3-dioxopiperazin-1-yl)methyl)pyrrolidin-1-yl)-3-cyclohexylpropan-2-yl)-5-(4-hydroxybenzyl)-4-phenethylpiperazine-2,3-dione], where the note is “24 h”, the caspase signal was 550 % of untreated control. Besides, the caspase signal (48 h) was 400 % of untreated control. Under setting [1], the “ApoTox caspase-3/7 activity” value is “no markers for apoptosis and cytotoxicity; also recorded: The 24 h time point was characterized by a significant spike in caspase activity; also recorded: By 72 h the caspase signal has decayed”; the “ApoTox viability (live cell protease)” value is “no effect on cell viability as measured by live cell protease at the 4 h time point; also recorded: dose dependent response at 48 h”.
